This series is described as follows: Particle size distribution of mirdametinib drug substance lots (laser diffraction). The following applies: mirdametinib free base. The format is physicochemical. An excerpt:
As used herein, “D50” or “d50”, also known as the median diameter, corresponds to the value under which 50% of the particles has a lower volume diameter. “D90” or “d90” corresponds to the value under which 90% of the particles has a lower volume diameter. The particle size may be measured using wet standard laser diffraction particle sizing techniques known in the art. One example of an instrument to measure the particle size of the dry powders is the Mastersizer 3000, manufactured by Malvern Panalytical Ltd. (Malvern, UK). As particles are often non-spherical, it is difficult and complex to provide dimensional descriptions of these non-spherical particles. As used herein, “volume diameter” refers to diameter of a sphere with equal volume of the non-spherical particle.
Mirdametinib free base (Lots #1, 2, and 3) having the properties in the table below were prepared.

Molecule `O=C(NOC[C@H](O)CO)c1ccc(F)c(F)c1Nc1ccc(I)cc1F` [Lot 1, N-((R)-2,3-dihydroxypropoxy)-3,4-difluoro-2-(2-fluoro-4-iodo-phenylamino)benzamide] came in with a D10 of 4.9 μm.
`O=C(NOC[C@H](O)CO)c1ccc(F)c(F)c1Nc1ccc(I)cc1F` [Lot 2, N-((R)-2,3-dihydroxypropoxy)-3,4-difluoro-2-(2-fluoro-4-iodo-phenylamino)benzamide] gave a D10 of 7.6 μm.

Values taken from US20240307327A1, “DOSAGE FORMS OF MIRDAMETINIB” (SpringWorks Therapeutics, Inc., priority 2023, published 2024).
